Source: US20250205198A1, “METHODS FOR DELIVERY OF PSYCHEDELIC MEDICATIONS BY INHALATION AND SYSTEMS FOR PERFORMING THE METHODS” (Cybin IRL Limited, priority 2022, published 2025)

What was measured:
[1] = Plasma pharmacokinetics after intravenous (bolus) co-administration of DMT and DMT-d10 to male rats (Group 4); conditions: for AUC0-1/dose: dose normalized; for t1/2: calculated 0.083 to 1.0 hr
[2] = Plasma pharmacokinetics after 20-minute snout-only inhalation (nebulized aerosol) co-administration of DMT and DMT-d10 to male rats (Group 6); conditions: for mean residence time (MRT) after inhalation compared to IV administration, fold greater: inhalation vs IV; for time of highest plasma concentration (first time point taken): after start of inhalation; for AUC0-1/dose: dose normalized
[3] = Plasma pharmacokinetics after oral gavage co-administration of DMT and DMT-d10 to male rats (Group 2); conditions: for bioavailability / AUC(0-t): male, Sprague Dawley, rat, po, 10 mg/kg; for bioavailability / AUC(0-t) / AUC0-1/dose: plasma; for time of peak plasma concentration postdose: oral administration 10 mg/kg; for AUC0-1/dose: dose normalized
[4] = Brain pharmacokinetics and brain to plasma ratio after intravenous (bolus) co-administration of DMT and DMT-d10 to male rats (Group 4); conditions: for Kp: male, Sprague Dawley, rat, iv, 1 mg/kg
[5] = male, Sprague Dawley, rat, plasma, iv, 1 mg/kg
[6] = plasma, male rats, IV bolus 1 mg/kg, co-administered
[7] = summary table, plasma, intravenous 1 mg/kg
[8] = plasma, inhalation 14.3 mg/kg DMT, 15.5 mg/kg DMT-d10
[9] = plasma, male rats, inhalation 14.3 mg/kg DMT + 15.5 mg/kg DMT-d10
[10] = summary table, plasma, inhalation 14.3 mg/kg DMT, 15.5 mg/kg DMT-d10
[11] = AUC0-t, male rats, oral gavage (OG) 10 mg/kg, co-administered
[12] = brain, male rats, IV bolus 1 mg/kg, co-administered
[13] = male, Sprague Dawley, rat, plasma, inhaled or intranasal, 15.5 mg/kg

Row | Compound | time of highest plasma concentration (first time point taken) ([1]; IV bolus 1 mg/kg) [h] | MRT last [1, 5] [min] | AUC0-1/dose ([1]; plasma, intravenous 1 mg/kg) | AUC0-1 [1, 6] [ng·h/mL] | AUC(0-t) [1, 6] [ng·h/mL] | AUC0-1 [1, 7] [ng·h/mL] | t1/2 [1, 7] [min] | mean residence time (MRT) after inhalation compared to IV administration, fold greater [2] | time of highest plasma concentration (first time point taken) ([2]; inhalation) [h] | AUC0-1/dose [2, 8] | AUC0-1 [2, 10] [ng·h/mL] | bioavailability [3] [%] | AUC(0-t) [3, 11] [ng·h/mL] | time of peak plasma concentration postdose [3] [h] | AUC0-1/dose ([3]; oral 10 mg/kg) | AUC0-t (brain) [4, 12] [ng·h/g] | Cmax (brain) [4, 12] [ng/g] | Kp ([4]; brain) | other results
1 | CN(C)CCc1c[nH]c2ccccc12 [DMT, N,N-dimethyltryptamine, reference compound] | 0.083 | 12.7 | 112 | 112 | 112 | 112 | 10.3 | approximately 5 × | 0.333 | 18.2 | 260 | 1.36 | 109 | 1 | 1.52 | 1060 | 3430 | 9.5 | half-life [1, 5]: 10.3 min; AUC0-inf [1, 6]: 114 ng·h/mL; AUC(0-t) [2, 9]: 308 ng·h/mL; AUC(0-t) ([3]; AUC0-1, plasma, male rats, oral gavage (OG) 10 mg/kg, co-administered): 15.2 ng·h/mL; AUC(0-t) ([3]; AUC0-1, summary table, oral 10 mg/kg): 15.2 ng·h/mL; AUC0-inf (brain) [4, 12]: 1070 ng·h/g; t1/2 (brain) ([4]; brain, male rats, IV bolus 1 mg/kg, calculated 0.25 to 1 hr): 9.3 min
2 | [2H]C([2H])([2H])N(C([2H])([2H])[2H])C([2H])([2H])C([2H])([2H])c1c[nH]c2ccccc12 [DMT-d10, 2-(1H-indol-3-yl)-N,N-bis(methyl-d3)ethan-1-amine-1,1,2,2-d4] | 0.083 | 19.6 | 75.4 | 75.4 | 75.4 | 75.4 | 26.8 | approximately 5 × | 0.333 | 17.0 | 264 | 1.16 | 80.2 | 1 | 0.878 | 931 | 1490 | 12.3 | improvement of duration of exposure (MRTlast) by deuteration ([1]; DMT-d10 vs. DMT, after IV): 54.5%; t1/2 ([1]; plasma, male rats, IV bolus 1 mg/kg): 26.8 min; improvement of duration of exposure (MRTlast) by deuteration ([2]; DMT-d10 vs. DMT, after inhalation): 24.6%; increase of inhalation bioavailability by deuteration ([2]; DMT-d10 vs. DMT, inhalation): approximately 40%; inhalation bioavailability, fold greater than oral bioavailability ([2]; inhalation vs oral): approximately 20 ×; AUC0-inf [2, 13]: 384 ng·h/mL; half-life [2, 13]: 325 min; AUC0-1 [2, 9]: 264 ng·h/mL; t1/2 ([2]; summary table, plasma, inhalation 15.5 mg/kg DMT-d10, calculated 0.333 to 3.333 hr): 5.42 h; improvement of brain to plasma (B/P) ratio by deuteration ([4]; DMT-d10 vs. DMT, IV 1 mg/kg): approximately 30%
